Assay results reported in US20250099403A1, “IDENTIFICATION OF ACTIVITIES OF GUT MICROBE METABOLITES” (UNIVERSITY OF SOUTH CAROLINA, priority 2023, published 2025).

Tests used:
[1] = test system: TLR1/2; test: Pam3CSK4-induced cytokine expression in primary mouse macrophages (RT-qPCR); assay type: cell-based
Procedure: (§1) Primary mouse macrophages were treated with SoL A (as a representative of SoLs) either alone or together with LPS (an agonist of TLR4) or Pam3CSK4 (an agonist of TLR1/2) and the expression of three inflammatory cytokines was measured (IL-6, TNFα, and IL-1β).
On FIG. 16, bars represent mean±standard error. For each treatment, n=3. Significance was determined using Student's t test: * p<0.05, **** p<[…] 0.0001.
Preparation and treatment of macrophages. Primary mouse macrophages were prepared by first introducing 3 mL of 3% thioglycolate to mice via intraperitoneal injection. After 3 days, 10 mL of chilled PBS was introduced intraperitoneally to flush out macrophages. The cell suspension was then separated by centrifugation at 300×g for 5 minutes. Cells were seeded in culture dishes containing DMEM with 10% FBS for 1 hour before being washed with serum-free DMEM two times to remove unattached cells. The cells were incubated in serum-free DMEM for 16 hours before treatment. […]
mRNA extraction and RT-qPCR in macrophage-based assays. […] Relative gene expression levels were calculated using the ΔΔCT method and expression levels of 18S were used to normalize the results.

[2] = test system: Primary mouse macrophages; test: inflammatory cytokine expression in primary mouse macrophages, agent alone (RT-qPCR); assay type: cell-based; details: agent by itself, n=3
Procedure: as §1
Preparation and treatment of macrophages. Primary mouse macrophages were prepared by first introducing 3 mL of 3% thioglycolate to mice via intraperitoneal injection. After 3 days, 10 mL of chilled PBS was introduced intraperitoneally to flush out macrophages. The cell suspension was then separated by centrifugation at 300×g for 5 minutes. Cells were seeded in culture dishes containing DMEM with 10% FBS for 1 hour before being washed with serum-free DMEM two times to remove unattached cells. The cells were incubated in serum-free DMEM for 16 hours before treatment. To treat the macrophages, cells were incubated for 6 to 24 hours in DMEM without FBS with addition of LPS (Sigma-Aldrich), Pam3CSK4 (Invivogen), or SoL A. Cells were finally washed twice with Dulbecco's phosphate-buffered saline before being lysed for total RNA or protein extraction.
mRNA extraction and RT-qPCR in macrophage-based assays. […] The quality and quantity of RNA was then determined using a nanodrop and 1000 ng of mRNA from each sample was used for cDNA synthesis using a First-strand cDNA Synthesis System (Marligen Bioscience), qPCRs reactions were prepared in a 20 uL final volume containing Fast Start Universal SYBR Green Master (Rox) (Roche Applied Science), cDNA template, deionized water, and primers and probes for IL-1β, TNFα, IL-6, and the 18S rRNA which was used as a housekeeping gene Cycling conditions were 95° C. for 10 min followed by 40 cycles of 95° C. for 10 seconds, 60° C. for 15 seconds, and 68° C. for 20 seconds, then a melting curve analysis from 60° C. to 95° C. every 0.2° C. was obtained. […] Relative gene expression levels were calculated using the ΔΔCT method and expression levels of 18S were used to normalize the results.

[3] = biological target: T1, MD-2 (Homo sapiens, UniProt Q9Y6Y9); test: ELISA-based displacement assay with biotinylated LPS; assay type: binding
T1 construct: purchased Novus Biologicals
T1 sequence (Q9Y6Y9 19-160): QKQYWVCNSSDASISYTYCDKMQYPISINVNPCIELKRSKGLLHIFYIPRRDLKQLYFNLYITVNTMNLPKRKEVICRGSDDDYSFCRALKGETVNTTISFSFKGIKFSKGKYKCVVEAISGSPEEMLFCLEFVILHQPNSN
Procedure: To experimentally determine if SoLs A and B bind to MD-2 and to what extent the SoLs compete with LPS for binding to MD-2, an ELISA-based displacement assay was conducted. Taking advantage of biotinylated LPS, which retains the activity of unconjugated LPS, absorbance generated by an HRP-linked streptavidin probe was measured to determine the relative amount of MD-2 that was bound with biotin-LPS as opposed to MD-2 bound with SoL A or B. 0.1, 1.0, and 10 µM concentrations of SOL A or B and 1 ng/ml biotin-LPS were administered to MD-2 in three sequences: 1) Sol first followed by LPS 1 hour later, 2) LPS first followed by Sol 1 hour later, and 3) both SoL A or B and LPS at the same time.
ELISA displacement assay. Solid-phase sandwich ELISA kits were purchased from Invitrogen. The ELISA experiments were performed according to the kit instructions, using 50 nM hMD-2 (Novus Biologicals), 1 ng/mL LPS-EB Biotin (Invivogen), and 0.1, 1.0, and 10 µM purified SoL A. SOL A was added to the assay 1 hour before, 1 hour after, or simultaneously with LPS-EB Biotin. Absorbance was measured at 450 nm using a BioTek microplate reader.

[4] = test system: peritoneal macrophages; test: inflammatory cytokine expression in macrophages treated with purified SoL A (qRT-PCR); assay type: cell-based; details: 10UM (FIG. 32 legend)
[5] = in vivo inflammation after intraperitoneal injection of SoL A; set-up: species or system mouse; details: 1 mg/kg i.p.
Procedure: To test whether SoL A can induce inflammation in vivo, mice were treated by intraperitoneal (i.p.) injection of 1 mg/kg of SOL A. At 2 hrs post-injection, FACS analysis of immune cells in the peritoneal exudate was performed.

[6] = test system: THP-1 monocytes; test: M2 polarization of THP-1 derived macrophages (RT-qPCR of markers); assay type: cell-based; details: 10 µM SoL A with IL-4 and IL-1β, 24 hours, n=3
Procedure: (§2) THP-1 monocytes were treated with IFN-γ and LPS to induce M1 polarization or IL-4 and IL-1β to induce M2 polarization. Successful induction of M1 and M2 polarization was confirmed by morphology changes and subsequent RT-qPCR quantification of cytokine profiles.
(§3) For all treatments, n=3 and significance was determined using one-way ANOVA: 0.001<p<0.01, *** 0.0001<p<0.001, and **** p<0.0001.
(§4) THP-1 monocytes were maintained in RPMI16 with 10% heat inactivated FBS, 1% Penicillin-Streptomycin-Ampotericin B, and 50 μM 2-mercaptoethanol prior to differentiation. The cells were differentiated into macrophages with 150 nM PMA for 48 hours. M1 polarization was induced by adding 20 ng/ml IFN-γ and […] LPS for 24 hours. M2 polarization was induced by adding 20 ng/ml IL-4 and 20 ng/ml IL-1β for 24 hours. In all tests, 10 µM Sol A was added at the same time as M1 and M2 differentiation agents. After 24 hours of treatment, total RNA was collected, and RT-qPCR was performed as described above.

[7] = test system: Macrophages; test: Western blot of TLR4 downstream signaling in LPS-treated macrophages; assay type: cell-based; details: 100 ng/ml LPS, 30 minutes
Procedure: Macrophages were treated with 100 ng/ml LPS in the presence of increasing concentrations of Sol A or B (from 0 to 20 μM) for 30 minutes. Following treatment, all cellular protein was extracted using MPER lysis buffer (Thermo Scientific). Protein samples were loaded onto SDS-PAGE gels for separation, then transferred to nitrocellulose membranes (Amersham Biosciences). Primary antibodies and HRP-conjugated secondary antibodies (Cell Signaling Technology) were used to detect target proteins. Signal was detected using an ECL kit (Thermo Scientific). […] The housekeeping gene β-Actin was used as a loading control.

[8] = test system: THP-1 monocytes; test: M1 polarization of THP-1 derived macrophages (RT-qPCR of markers); assay type: cell-based; details: 10 µM SoL A with IFN-γ and LPS, 24 hours, n=3
Procedure: as §2, §3, §4

[9] = test system: TLR4; test: LPS-induced cytokine expression in primary mouse macrophages (RT-qPCR); assay type: cell-based; details: SoL A together with LPS, p≤0.0001
Procedure: as §1
Preparation and treatment of macrophages. Primary mouse macrophages were prepared by first introducing 3 mL of 3% thioglycolate to mice via intraperitoneal injection. After 3 days, 10 mL of chilled PBS was introduced intraperitoneally to flush out macrophages. The cell suspension was then separated by centrifugation at 300×g for 5 minutes. […]
mRNA extraction and RT-qPCR in macrophage-based assays. […] The quality and quantity of RNA was then determined using a nanodrop and 1000 ng of mRNA from each sample was used for cDNA synthesis using a First-strand cDNA Synthesis System (Marligen Bioscience), qPCRs reactions were prepared in a 20 uL final volume containing Fast Start Universal SYBR Green Master (Rox) (Roche Applied Science), cDNA template, deionized water, and primers and probes for IL-1β, TNFα, IL-6, and the 18S rRNA which was used as a housekeeping gene Cycling conditions were 95° C. for 10 min followed by 40 cycles of 95° C. for 10 seconds, 60° C. for 15 seconds, and 68° C. for 20 seconds, then a melting curve analysis from 60° C. to 95° C. every 0.2° C. was obtained. […]

[10] = piroxicam-accelerated Il10-deficient mouse IBD model; assay type: in vivo
Procedure: Experimental validation of the predictions of Example 1 were carried out using a mouse model of IBD. […] Stimulation of mucosal Toll-like receptors (TLRs) stemming from this mucosal barrier breakdown was another factor in the selection of this model, as it has been previously shown that SoL A suppresses LPS-induced inflammation and LPS is well-known to activate TLR signaling. […]
Fecal material was collected from IBD 1/10−/−+piroxicam (n=7, female) and pre-IBD control//10−/−mice (n=4, female), extracted metabolites, and the abundance of SoLs was measured by targeted metabolomics using high performance liquid chromatography (HPLC)-high resolution mass spectrometry (HRMS). […] Metabolites with m/z corresponding to major SoLs were detected, specifically SoLs A and B, in all samples tested and their identities were unambiguously determined by HPLC-MS/MS. […]
Peak areas were calculated using TICs obtained after MS/MS fragmentation and used to measure the abundance of SoLs A and B. Significance was determined using Student's t-test. […] Significance was determined using Mann-Whitney U test. […]
Piroxicam-accelerated 1110−/−mouse IBD model and analysis. […] Mice were euthanized at 18 days to collect tissues for assessment and intestinal contents for quantification of SoLs. […] Inflammation scores of colon sections were blindly assessed using an Echo Revolve light microscope and accompanying software. […]

[11] = SoL added first, LPS 1 hour later, vs LPS first or together, all concentrations 0.1, 1.0, 10 µM, 1 ng/ml biotin-LPS
[12] = moving from low to high concentrations of SoL (0.1, 1.0, 10 µM)

Row | Compound | expression of inflammatory cytokines (IL-6, TNFα, IL-1β) compared to control [2] | percent absorbance (MD-2 bound with biotin-LPS) [3, 11] | percent absorbance (MD-2 bound with biotin-LPS) [3, 12] | LPS-induced IκBα degradation ([7]; SoL 0 to 20 μM) | LPS-induced phosphorylation of p38 and ERK1/2 ([7]; SoL 0 to 20 μM) | LPS-induced phosphorylation of p38 and ERK1/2 ([7]; SoL at 20 µM) | further results
1 | CC(C)CCCCCCCCCCC[C@@H](O)CC(=O)N[C@@H](CS(=O)(=O)O)[C@H](O)CCCCCCCCCCCC(C)C [SoL A, sulfobacin A] | mild to moderate effect | marked decrease | decreased dramatically | concentration-dependently suppressed | reduced LPS-induced phosphorylation of p38 and ERK1/2 in a concentration-dependent manner | almost completely blocked | Pam3CSK4-induced IL-6 and TNFα expression ([1]; SoL A together with Pam3CSK4): inhibited Pam3CSK4-induced IL-6 and TNFα to a smaller extent; IL-1β expression induced by Pam3CSK4 ([1]; SoL A together with Pam3CSK4, p≤0.05): increasing; expression levels of pro-inflammatory cytokines IL-1a, IL-1B, IL-6, and TNFα [4]: significantly increased; monocytes and neutrophils in the peritoneal exudate ([5]; 2 hrs post-injection, FACS): more monocytes (Mono) and neutrophils (Neut) were recruited; serum IL-6 levels ([5]; ELISA): significantly and consistently increased; effect on M2 polarization (marker expression) [6]: mostly non-significant effect; production of M1-polarized macrophage markers IL-6, CXCL10, IL-12β, and TNFα [8]: significantly reduced; expression of all three cytokines (IL-6, TNFα, IL-1β) induced by LPS [9]: significantly suppress
2 | CC(C)CCCCCCCCCCCC(=O)N[C@@H](CS(=O)(=O)O)[C@H](O)CCCCCCCCCCCC(C)C [SoL B, sulfobacin B] |  | marked decrease | decreased dramatically | concentration-dependently suppressed | reduced LPS-induced phosphorylation of p38 and ERK1/2 in a concentration-dependent manner | almost completely blocked | 
3 | CN1C(C(=O)Nc2ccccn2)=C(O)c2ccccc2S1(=O)=O [piroxicam] |  |  |  |  |  |  | histological analysis of mouse distal colon ([10]; 1/10−/− mice, diet with 100 ppm piroxicam, 18 days): induced intestinal inflammation; colon expression of inflammatory markers TNFα, NOS2, IL-6, and IL-1β ([10]; 1/10−/−+piroxicam mice vs control, Mann-Whitney U test): significantly increased
4 | Pam3CSK4 | significant induction |  |  |  |  |  | 
5 | lipopolysaccharide [LPS] | significant induction |  |  |  |  |  | 
